Read-outs that look alike come from different tables or passages of the source.
What was measured:
[1] = tested on: blood glucose concentration; assay: Blood glucose lowering after single oral administration, fasting metabolically healthy guinea pigs; type: in vivo, guinea pigs (young cross-bred male); conditions: Cavia porcellus
[2] = tested on: blood glucose concentration; assay: Blood glucose lowering after single oral administration, fasting metabolically healthy rats; conditions: for ED50: Rattus norvegicus, po, 5 h; for ED50 (15%): dose which effects a lowering of the blood glucose concentration by 15% in 50% of the animals: Table II, rats p.o., α-methylenecarboxylic acid intermediates;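 as to all read-outs here: young male Sprague-Dawley rats fasted 18 h, blood glucose sampled before dosing and at 3 and 5 h afterwards, compared with a solvent-treated control group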
[3] = Acute toxicity, guinea pig, peroral; conditions: in vivo, po; Table III; guinea pig p.o.; preliminary results
Text: Column C provides data relating to acute toxicity (LD50; guinea pig, peroral administration).

[4] = tested on: blood glucose concentration; conditions: guinea pig, in vivo, po; cited from earlier work
guinea pig = conditions: Table III; guinea pig p.o.; cited according to Proske et al. 1962; cited from earlier work
in vivo = conditions: mouse, po, Table I, mice p.o., 7 days observation, read-out: LD50 (acute toxicity)
Experimental: 2. Determination of the toxicity
Various doses of the substances (volume: 10 ml/kg) are administered orally by means of a stomach tube. The observation time is 7 days.

[5] = tested on: blood glucose concentration; conditions: rat, in vivo, po, 300 min
[6] = 5 h, read-out: ED50 (15%): dose which effects a lowering of the blood glucose concentration by at least 15% in 50% of the animals
[7] = 5 h, read-out: ED50 (25%): dose which effects a lowering of the blood glucose concentration by at least 25% in 50% of the animals
[8] = read-out: ED50 (15%): dose which effects a lowering of the blood glucose concentration by at least 15% in 50% of the animals
[9] = read-out: ED50 (25%): dose which effects a lowering of the blood glucose concentration by at least 25% in 50% of the animals
[10] = Table III B, guinea pig p.o., single dose, 5 hours, vs control group, read-out: ED50 (15%): dose which effects a lowering of the blood glucose concentration by at least 15% in 50% of the animals

Compound: O=C([O-])C1(CCCCCc2ccc(Cl)cc2)CO1.[Na+] (stereo not drawn)
- ED50 [1, 6]: 3 mg/kg
- ED50 [1, 7]: 8 mg/kg
- ED50 [2, 8]: 5 mg/kg
- ED50 [2, 9]: 16 mg/kg
- LD50 [3]: 300 to 400 mg/kg

Compound: O=C([O-])C1(CCCc2ccc(Cl)cc2)CO1.[Na+] (stereo not drawn)
- ED50 [1, 6]: 12 mg/kg
- ED50 [1, 7]: 26 mg/kg
- ED50 [2, 8]: 20 mg/kg
- ED50 [2, 9]: 41 mg/kg
- LD50 [3]: 500 to 600 mg/kg

Compound: O=C([O-])C1(CCCc2cccc(C(F)(F)F)c2)CO1.[Na+] (stereo not drawn)
- ED50 [1, 6]: 6 mg/kg
- ED50 [1, 7]: 11 mg/kg
- ED50 [2, 8]: 14 mg/kg
- ED50 [2, 9]: 23 mg/kg
- LD50 [3]: 300 to 400 mg/kg

Compound: O=C([O-])C1(CCCCCc2ccccc2)CO1.[Na+] (stereo not drawn)
- ED50 [1, 6]: 3 mg/kg
- ED50 [1, 7]: 7 mg/kg
- ED50 [2, 8]: 2 mg/kg
- ED50 [2, 9]: 12 mg/kg
- LD50 [3]: 500 to 600 mg/kg

Compound: 2-(3-Phenylpropyl)oxirane-2-carboxylic acid methyl ester [Example 13]
- ED50 (15%): dose which effects a lowering of the blood glucose concentration by 15% in 50% of the animals [2]: 252 mg/kg

Compound: 2-Benzyloxirane-2-carboxylic acid ethyl ester [Example 15]
- ED50 (15%): dose which effects a lowering of the blood glucose concentration by 15% in 50% of the animals [2]: 80 mg/kg

Compound: CCCCNC(=N)NC(=N)N [Serial No. 1, Buformin, reference compound]
- ED50 (25%): dose which effects a lowering of the blood glucose concentration by 25% in 50% of the animals [4]: 40 to 50 mg/kg
- LD50 (acute toxicity) (guinea pig): 58 mg/kg
- ED50 [2, 8]: > 100 mg/kg
- ED50 [2, 9]: 194 mg/kg

Compound: [H]/N=C(/N)N/C(=N/[H])NCCc1ccccc1 [Serial No. 2, Phenformin, reference compound]
- ED50 [4]: 20 to 25 mg/kg
- ED50 [2, 8]: > 150 mg/kg
- ED50 [2, 9]: > 343 mg/kg

Compound: CCOC(=O)C1(CCCc2ccc(Cl)cc2)CO1 (stereo not drawn) [Serial No. 3, 2-[3-(4-Chlorophenyl)propyl]oxirane-2-carboxylic acid ethyl ester]
- ED50 [1, 10]: 11 mg/kg
- ED50 [2, 8]: 40 mg/kg
- ED50 [2, 9]: 54 mg/kg
- LD50 (in vivo): 730 mg/kg

Compound: CCOC(=O)C1(CCCc2cccc(C(F)(F)F)c2)CO1 (stereo not drawn) [Serial No. 5, 2-[3-(3-Trifluoromethylphenyl)propyl]oxirane-2-carboxylic acid ethyl ester]
- ED50 [1, 10]: 3 mg/kg
- ED50 [2, 8]: 6 mg/kg
- ED50 [2, 9]: 24 mg/kg
- LD50 (in vivo): ~300 mg/kg

Compound: CCOC(=O)C1(CCCCCc2ccccc2)CO1 (stereo not drawn) [Serial No. 7, 2-(5-Phenylpentyl)oxirane-2-carboxylic acid ethyl ester]
- ED50 [1, 10]: 11 mg/kg
- ED50 [5]: 21 mg/kg
- ED50 [2, 8]: 10 mg/kg
- LD50 (in vivo): 230 mg/kg

Compound: CCOC(=O)C1(CCCCCc2ccc(Cl)cc2)CO1 (stereo not drawn) [Serial No. 9, 2-[5-(4-Chlorophenyl)pentyl]oxirane-2-carboxylic acid ethyl ester]
- ED50 [1, 10]: 5 mg/kg
- ED50 [2, 8]: 3 mg/kg
- ED50 [2, 9]: 24 mg/kg
- LD50 (in vivo): 275 mg/kg

Compound: CCOC(=O)C1(CCCCc2ccccc2)CO1 (stereo not drawn) [Serial No. 11, 2-(4-Phenylbutyl)oxirane-2-carboxylic acid ethyl ester]
- ED50 [2, 8]: 67 mg/kg

Compound: CCOC(=O)C1(CCCc2cccc(Cl)c2)CO1 (stereo not drawn) [Serial No. 12, 2-[3-(3-Chlorophenyl)propyl]oxirane-2-carboxylic acid ethyl ester]
- ED50 [2, 8]: 59 mg/kg

Compound: Sodium 2-(3-phenylpropyl)oxirane-2-carboxylate [Example 14]
- ED50 (15%): dose which effects a lowering of the blood glucose concentration by 15% in 50% of the animals [2]: > 253 mg/kg

Reference: patent publication US4324796A, “Substituted oxiranecarboxylic acids, their use and medicaments containing them” (BYK Gulden Lomberg Chemische Fabrik Gesellschaft mit …, priority 1979, dated 1982)
